Measured values as given in patent US9212168B2 (priority 2011, dated 2015).

The compounds below were run on HCV genotype 1a replicon (assay: HCV genotype 1a replicon assay (NS3 protease activity readout)). Conditions: HCV genotype 1a replicon.
Type: cell-based, hepatitis C virus
Procedure: Assay 2: HCV Genotype 1a Replicon Assay
The HCV genotype 1a replicon cell line was obtained from Apath LLC (APC89; Huh7.5 cell background). This subgenomic replicon contains the N-terminus of the HCV core protein fused to the neomycin-resistance selectable marker. The EMCV IRES lies downstream and drives expression of the non-structural proteins NS3-NS5B. Compound potencies were determined using the NS3-specific protease activity in lysates as a measurement of compound inhibition of replicon levels.
Cells were grown at 37° C. in a 5% CO2 humidified incubator in DMEM (Invitrogen) with 10% FBS (HyClone), 1×NEAA (Invitrogen), 1× Pen-Strep (Invitrogen), and 850 μg/mL G418 (Invitrogen). On day 1 of the assay, cells were plated at 15,000 cells/well in black 96-well tissue culture plates (Costar) in 200 μL media lacking G418. Four hours later, once the cells had adhered, the media was removed and replaced with media (no G418) containing dose-responses of test compounds. Compounds were initially diluted in DMSO and then diluted another 200× in media to bring the final DMSO concentration down to 0.5%. The cells were incubated with test compounds for 48 or 72 hours. At the end of the incubation period, media and compound were removed from the plates.
To determine the NS3-specific protease activity in lysates, the cells were lysed at room temperature in 50 μL/well of 50 mM Hepes pH 7.5, 150 mM NaCl, 15% Glycerol, 0.15% Triton X-100, 10 mM DTT for 20 minutes with shaking. 50 μL of an NS3/4a protease-specific FRET substrate (Anaspec RET S1 Cat#22991) was then added to the wells at a final concentration of 15 μM. The plates were incubated at 37° C. for 20 minutes, which corresponds to a timepoint at which the protease activity is still in the linear phase. Protease activity was determined by measuring fluorescence (Excitation: 340 nm; Emission: 509 nm).
To analyze the data, the fluorescence was plotted vs. the compound concentration, and EC50 values were determined from a 4-parameter robust fit model using GraphPad Prism software.

Question: Which “Genotype 1a” value does the source give for `COC(=O)N[C@H](C(=O)N1C[C@@H](C)C[C@H]1c1nc(-c2ccc(-c3cc(F)c(NC(=O)c4ccc(N5CCN(C(=O)C6CC6)C[C@H]5C)nc4)cc3C(F)(F)F)cc2)c[nH]1)C(C)C` [Example 1-52] here?
Answer: C (C represents pEC50 between and 9 and about 10, (EC50 between 1 nM and 0.1 nM))

Question: `COC(=O)N[C@H](C(=O)N1C[C@@H](OC)C[C@H]1c1nc(-c2ccc(-c3cc(Cl)c(C(=O)Nc4ccc(N5CCN(C(=O)C(C)(C)CO)C[C@H]5C)nc4)cc3OC(F)(F)F)cc2)c[nH]1)C1CCOCC1` [Example 22-17] was tested. Which “Genotype 1a” value did it give?
Answer: D (D represents pEC50>10 (EC50<0.1 nM))

Question: How did the “Genotype 1a” value turn out when `COC(=O)N[C@H](C(=O)N1C[C@@H](N2CCOCC2)C[C@H]1c1nc(-c2ccc(-c3cc(Cl)c(NC(=O)c4ccc(N5CCN(C(=O)[C@H]6CC6(C)C)C[C@H]5C)nc4)cc3OC(F)(F)F)cc2)c[nH]1)C(C)C` [Example 15-4] was run?
Answer: D (D represents pEC50>10 (EC50<0.1 nM))

Question: With `COC(=O)N[C@@H](C(=O)N1C[C@@H](OC)C[C@H]1c1nc(-c2ccc(-c3cc(Cl)c(NC(=O)c4ccc(N5CCN(C(=O)C(C)(C)CO)C[C@H]5C)nc4)cc3C(F)(F)F)cc2)c[nH]1)C1CCCCC1` [Example 19-14] as the compound, how does the “Genotype 1a” value read?
Answer: A (A represents a pEC50 value between 6 and 8 (EC50 between 1 μM and 10 nM))

Question: For `COC(=O)N[C@H](C(=O)N1C[C@@H](C)C[C@H]1c1nc(-c2ccc(-c3cc(F)c(NC(=O)c4ccc(N5CCN(C(=O)C6CC6)C[C@H]5C)nc4)cc3F)cc2)c[nH]1)C(C)C` [Example 1-83], which “Genotype 1a” value is on record?
Answer: C (C represents pEC50 between and 9 and about 10, (EC50 between 1 nM and 0.1 nM))

Question: How did the “Genotype 1a” value turn out when `COC(=O)N[C@H](C(=O)N1C[C@@H](C)C[C@H]1c1nc(-c2ccc(-c3cc(F)c(NC(=O)c4ccc(N5CCN(C(=O)NN(C)C)C[C@H]5C)nc4)cc3OC(F)(F)F)cc2)c[nH]1)C(C)C` [Example 1-95] was run?
Answer: C (C represents pEC50 between and 9 and about 10, (EC50 between 1 nM and 0.1 nM))

Question: How did the “Genotype 1a” value turn out when `COC(=O)NC(C(=O)N1CC(F)CC1c1nc(-c2ccc(-c3cc(Cl)c(NC(=O)c4ccc(N5CCN(C(=O)C(C)(C)CO)CC5C)nc4)cc3OC(F)(F)F)cc2)c[nH]1)C1CCOCC1` (stereo not drawn) [Example 29-4] was run?
Answer: D (D represents pEC50>10 (EC50<0.1 nM))

Question: How did the “Genotype 1a” value turn out when `COC(=O)NC(C(=O)N1C[C@@H](C)C[C@H]1c1nc(-c2ccc(-c3c(F)cc(NC(=O)c4ccc(N5CCN(C(=O)C(C)(C)C)C[C@H]5C)nc4)cc3F)cc2)c[nH]1)C1CCCCC1` (stereo partly drawn) [Example 21-1] was run?
Answer: A (A represents a pEC50 value between 6 and 8 (EC50 between 1 μM and 10 nM))

Question: With `CNC(=O)N1CCN(c2ccc(NC(=O)c3ccc(-c4ccc(-c5c[nH]c([C@@H]6C[C@H](C)CN6C(=O)[C@@H](NC(=O)OC)C(C)C)n5)cc4)c(OC(F)(F)F)c3)cn2)[C@H](C)C1` [Example 4-34] as the compound, how does the “Genotype 1a” value read?
Answer: C (C represents pEC50 between and 9 and about 10, (EC50 between 1 nM and 0.1 nM))

Question: `COC(=O)N[C@H](C(=O)N1C[C@@H](O)C[C@H]1c1nc(-c2ccc(-c3cc(Cl)c(NC(=O)c4ccc(N5CCN(C(=O)C(C)(C)C)C[C@H]5C)nc4)cc3OC(F)(F)F)cc2)c[nH]1)C(C)C` [Example 26-8] was tested. Which “Genotype 1a” value did it give?
Answer: C (C represents pEC50 between and 9 and about 10, (EC50 between 1 nM and 0.1 nM))

Question: How did the “Genotype 1a” value turn out when `COC(=O)N[C@H](C(=O)N1C[C@@H](N(C)C)C[C@H]1c1nc(-c2ccc(-c3ccc(NC(=O)c4ccc(N5CCN(C(=O)[C@H]6CC6(C)C)C[C@H]5C)nc4)cc3C)cc2)c[nH]1)C(C)C` [Example 2-4] was run?
Answer: D (D represents pEC50>10 (EC50<0.1 nM))

Question: How did the “Genotype 1a” value turn out when `COC(=O)N[C@H](C(=O)N1C[C@@H](C)C[C@H]1c1nc(-c2ccc(-c3cc(Cl)c(C(=O)Nc4ccc(N5CCN(C(=O)C(C)(C)C)C[C@@H]5C)nc4)cc3OC(F)(F)F)cc2)c[nH]1)C1CCOCC1` [24-2] was run?
Answer: C (C represents pEC50 between and 9 and about 10, (EC50 between 1 nM and 0.1 nM))

Question: `COC(=O)N[C@H](C(=O)N1C[C@@H](OC)C[C@H]1c1nc(-c2ccc(-c3cc(Cl)c(NC(=O)c4ccc(N5CCN(C(=O)C(C)(C)C)C[C@H]5C)nc4)cc3C(F)(F)F)cc2)c[nH]1)C1CCCCC1` [Example 19-17] was tested. Which “Genotype 1a” value did it give?
Answer: C (C represents pEC50 between and 9 and about 10, (EC50 between 1 nM and 0.1 nM))

Question: How did the “Genotype 1a” value turn out when `COC(=O)N[C@H](C(=O)N1C[C@@H](C)C[C@H]1c1nc(-c2ccc(-c3cc(Cl)c(NC(=O)c4ccc(N5C[C@H](C)N(C(=O)[C@H]6CCCN6C(=O)OC)C[C@H]5C)nc4)cc3OC(F)(F)F)cc2)c[nH]1)C(C)C` [Example 1-46] was run?
Answer: D (D represents pEC50>10 (EC50<0.1 nM))

Question: For `COC(=O)N[C@H](C(=O)N1C[C@@H](C)C[C@H]1c1nc(-c2ccc(-c3cc(F)c(NC(=O)c4ccc(N5CCN(C(=O)C6CC67CC7)C[C@H]5C)nc4)cc3OC(F)(F)F)cc2)c[nH]1)C(C)C` (stereo partly drawn) [Example 1-88], which “Genotype 1a” value is on record?
Answer: D (D represents pEC50>10 (EC50<0.1 nM))

Question: How did the “Genotype 1a” value turn out when `[2H]C([2H])([2H])C1(C([2H])([2H])[2H])CC1C(=O)N1CCN(c2ccc(C(=O)Nc3cc(Cl)c(-c4ccc(-c5c[nH]c([C@@H]6C[C@H](C)CN6C(=O)[C@@H](NC(=O)OC)C(C)C)n5)cc4)cc3F)cn2)[C@H](C)C1` (stereo partly drawn) [Example 1-100] was run?
Answer: D (D represents pEC50>10 (EC50<0.1 nM))

Same assay, conditions: Hepatitis C virus, read-out: Genotype 1a, HCV genotype 1a replicon

Question: With `COC(=O)N[C@H](C(=O)N1C[C@@H](N(C)CCN)C[C@H]1c1nc(-c2ccc(-c3cc(Cl)c(NC(=O)c4ccc(N5CCN(C(=O)C(C)(C)C)C[C@H]5C)nc4)cc3OC(F)(F)F)cc2)c[nH]1)C(C)C` [Example 15-8] as the compound, how does the EC50 read?
Answer: 0.1 to 1 nM

Question: `COC(=O)N[C@H](C(=O)N1C[C@@H](N(C)C)C[C@H]1c1nc(-c2ccc(-c3ccc(C(=O)Nc4ccc(N5CCN(C(=O)[C@]6(C)CCCN6C(=O)[C@@H](NC(=O)OC)C(C)C)C[C@H]5C)nc4)cc3)cc2)c[nH]1)C(C)C` [Example 6-3] was tested. Which EC50 did it give?
Answer: 0.1 to 1 nM

Question: With `COC(=O)N[C@H](C(=O)N1C[C@H](OC)C[C@H]1c1nc(-c2ccc(-c3cc(Cl)c(NC(=O)c4ccc(N5CCN(C(=O)C(C)(C)C)C[C@H]5C)nc4)cc3OC(F)(F)F)cc2)c[nH]1)C(C)C` [Example 5-19] as the compound, how does the EC50 read?
Answer: < 0.1 nM

Question: `COC(=O)N[C@H](C(=O)N1C[C@@H](S(C)(=O)=O)C[C@H]1c1nc(-c2ccc(-c3ccc(C(=O)Nc4ccc(N5CCN(C(=O)C(C)(C)C)C[C@H]5C)nc4)cc3OC(F)(F)F)cc2)c[nH]1)C(C)C` [Example 6-22] was tested. Which EC50 did it give?
Answer: 1 to 10 nM

Question: How did the EC50 turn out when `COC(=O)N[C@H](C(=O)N1C[C@H](N2Cc3ccccc3C2)C[C@H]1c1nc(-c2ccc(-c3cc(Cl)c(NC(=O)c4ccc(N5CCN(C(=O)C(C)(C)C)C[C@H]5C)nc4)cc3OC(F)(F)F)cc2)c[nH]1)C(C)C` [Example 5-10] was run?
Answer: 10 to 1000 nM

Question: How did the EC50 turn out when `COC(=O)N[C@H](C(=O)N1C[C@@H](C)C[C@H]1c1nc(-c2ccc(-c3cc(Cl)c(NC(=O)c4ccc(N5CCN(C(=O)C(C)(C)N(C)C)C[C@H]5C)nc4)cc3OC(F)(F)F)cc2)c[nH]1)C(C)C` [Example 12-20] was run?
Answer: < 0.1 nM

Question: How did the EC50 turn out when `CNC(=O)N1C[C@@H](C)N(c2ccc(C(=O)Nc3cc(OC(F)(F)F)c(-c4ccc(-c5c[nH]c([C@@H]6C[C@H](C)CN6C(=O)C(C)N(C)C(=O)OC)n5)cc4)cc3Cl)cn2)C[C@@H]1C` (stereo partly drawn) [Example 7-14] was run?
Answer: < 0.1 nM

Question: With `COC(=O)NC(C(=O)N1C[C@@H](C)C[C@H]1c1nc(-c2ccc(-c3cc(Cl)c(NC(=O)c4ccc(N5CCN(C(=O)C(C)(C)C)C[C@H]5C)nc4)cc3OC(F)(F)F)cc2)c[nH]1)C1CCS(=O)(=O)CC1` (stereo partly drawn) [Example 13-36] as the compound, how does the EC50 read?
Answer: 1 to 10 nM

Question: How did the EC50 turn out when `COC(=O)N[C@H](C(=O)N1C[C@H](C)C[C@H]1c1nc(-c2ccc(-c3cc(Cl)c(C(=O)Nc4ccc(N5CCN(C(=O)C(C)(C)C)C[C@H]5C)nc4)cc3OC(F)(F)F)cc2)c[nH]1)C(C)C` [Example 6-26] was run?
Answer: 1 to 10 nM

Question: For `COC(=O)N[C@H](C(=O)N1C[C@@H](C)C[C@H]1c1nc(-c2ccc(-c3cc(Cl)c(NC(=O)c4ccc(N5CCN(C(=O)C(C)(C)N6CCOCC6)C[C@H]5C)nc4)cc3OC(F)(F)F)cc2)c[nH]1)C(C)C` [Example 12-26], which EC50 is on record?
Answer: < 0.1 nM

Question: Which EC50 does the source give for `COC(=O)NCC(C)(C)C(=O)N1CCN(c2ccc(C(=O)Nc3cc(OC(F)(F)F)c(-c4ccc(-c5c[nH]c([C@@H]6C[C@H](C)CN6C(=O)[C@@H](NC(=O)OC)C(C)C)n5)cc4)cc3Cl)cn2)[C@H](C)C1` [Example 12-39] here?
Answer: < 0.1 nM

Question: With `COC(=O)N[C@H](C(=O)N1C[C@@H](C)C[C@H]1c1nc(-c2ccc(-c3cc(Cl)c(NC(=O)c4ccc(N5CCN(C(=O)C(C)(C)C)C[C@H]5C)nc4)cc3OC(F)(F)F)cc2)c(CO)[nH]1)C(C)C` [Example 5-12] as the compound, how does the EC50 read?
Answer: < 0.1 nM

Question: For `COC(=O)CC(=O)NCC(C)(C)C(=O)N1CCN(c2ccc(C(=O)Nc3cc(OC(F)(F)F)c(-c4ccc(-c5c[nH]c([C@@H]6C[C@H](C)CN6C(=O)[C@@H](NC(=O)OC)C(C)C)n5)cc4)cc3Cl)cn2)[C@H](C)C1` [Example 12-33], which EC50 is on record?
Answer: 0.1 to 1 nM

Question: For `COCC(=O)N1CCC[C@@]1(C)C(=O)N1CCN(c2ccc(NC(=O)c3ccc(-c4ccc(-c5c[nH]c([C@@H]6C[C@@H]7CCCC[C@@H]7N6C(=O)[C@@H](NC(=O)OC)C(C)C)n5)cc4)c(OC(F)(F)F)c3)cn2)[C@H](C)C1` [Example 6-13], which EC50 is on record?
Answer: < 0.1 nM
